Test results published in patent US20130096100A1, “DI(ARYLAMINO)ARYL COMPOUND” (ASTELLAS PHARMA INC., priority 2007, published 2013).

Legend:
[1] = system: v1 expressing 3T3 cells (tumor); experiment: Antitumor effect on v1 expressing 3T3 cells inoculated in nude mice (Test Example 13); type: in vivo; details: BALB/c nude mice
Description: 3×10^6 cells of v1 expressing 3T3 cells suspended in PBS were inoculated subcutaneously by injection to the back of 5 weeks old male BALB/c nude mice (Charles River Japan, Inc.). […] Administrations were performed once a day for 14 days, and body weight and tumor size were measured every other day. Tumor volume was calculated using the following formula.
[Tumor volume (mm^3)]=[Tumor major axis (mm)]×[tumor minor axis (mm)]^2×0.5
The antitumor effect of compound D was investigated by the similar procedure with the following exceptions. The administration of the compound was started after 6 days of the inoculation and carried out once a day for 10 days.

[2] = target: T1, EML4-ALK fusion protein v1 (Homo sapiens, UniProt Q9UM73, D1529E/I1461V/K1491R); experiment: Inhibitory effect of compounds against the in vitro kinase activity of EML4-ALK fusion protein v1, single concentration (Test Example 12(3)); type: biochemical; details: final concentration 10 nM
T1 construct: FLAG (N); made in house
Text: N-terminally FLAG-tagged EML4-ALK fusion protein v1 was inserted into a vector pMX-iresCD8 capable of co-expression of insert cDNA and cell surface antigen CD8 (J. Biol. Chem., 2001, vol. 276, p. 39012-39020) to create a vector FLAG-EML4-ALKv1/pMX-iresCD8 expressing both FLAG-EML4-ALKv1 and CD8. FLAG-EML4-ALKv1/pMX-iresCD8 was used to create a recombinant retrovirus in the same manner as described above and infected into mouse lymphoid cell line BA/F3 cells. Using a magnetic bead reagent for cell separation and a purification column (anti-CD8 monoclonal antibody immobilized on magnetic beads and a MiniMACS purification column; both are products of Miltenyi Biotec Inc.), cell surface CD8-expressing cells were purified conveniently. […] After washing 3 times with PBS, the cells were lysed in a lysis solution (50 mM Tris.HCl (pH 7.4), 150 mM NaCl, 1% Triton X100, 5 mM EDTA, 5 mM EGTA, 1 mM NaVO4, 1 mM DTT and protease inhibitor cocktail complete). The EML4-ALK fusion protein v1 present in the supernatant obtained after centrifugation was purified using ANTI-FLAG M2 Affinity Gel (SIGMA-ALDRICH Inc.) according to the method described in the product information document.
The EML4-ALK fusion protein v1 purified as above was investigated for its phosphorylation activity toward a peptide substrate using a kinase activity detection kit (HTRF KinEASE-TK; Cisbio Inc.). Using TK substrate 1, which was included in the kit, as the substrate, and after adding no ATP or 100 μM ATP, the mixtures were reacted at room temperature for 1 hour, and the count of HTRF was detected as recommended by the Kits manufacturer.

[3] = system: HCC-827 cells (mutant EGFR protein-expressing cells); details: conditions of Non-patent Document 6; cited from earlier work
[4] = Toxicity test in rats, 7-day repeated oral administration (Test Example 5); type: in vivo, SD rats; details: 7 days; for Dose: Bone marrow inhibition / Dose: Exacerbation of common symptoms / Non-toxic dose: oral; for Dose: Moribund condition: SD, rat, in vivo, po
Text: Test compounds were each suspended in a 0.5% aqueous methylcellulose solution and repeatedly administered to SD rats (two females and four males in each group) by the oral route at each dose for 7 days.

[5] = target: T2, MNK1 (Homo sapiens, UniProt Q9BUB5); experiment: Kinase inhibition profiling, MNK1 (Test Example 6); type: biochemical; details: 100 nM; read-out: inhibitory activity against MNK1
T2 construct: purchased Carna Biosciences Inc., Japan (contract measurement)

[6] = system: human non-small cell lung cancer cell line NCI-H2228 cells (EML4-ALK fusion protein-expressing cells); experiment: Inhibitory effect against anchorage-independent cell growth of NCI-H2228 cells (Test Example 3); type: cell-based; details: 120 h, spheroid plate, 5 days, CellTiter-Glo
Text: Measurement for anchorage-independent cell growth (colony method, etc) has been known to be a system for investigating the anticancer action (pharmacological effect) of test compounds (Clinical Oncology, second edition, Cancer and Chemotherapy Publishers Inc.). In place of the colony method, there is a following method using spheroid plates for measuring the growth of non-attached cells.
(§1) In a 96-well spheroid plate (Sumilon Celltight Spheroid 96U; Sumitomo Bakelite Co., Ltd., Japan), human non-small cell lung cancer cell line NCI-H2228 cells were seeded at 2000 cells per well in RPMI1640 medium (Invitrogen) containing 10% fetal bovine serum. NCI-H2228 cells are those expressing another EML4-ALK fusion protein, which is different from the EML4-ALK fusion protein v1 because it is encoded by an EML4-ALK fusion polynucleotide whose fusion point on EML4 cDNA is different from that of the EML4-ALK fusion polynucleotide v1, but whose ALK region is the same as that of the EML4-ALK fusion polynucleotide v1. The above NCI-H2228 cells seeded in the plate were cultured overnight under 5% CO2 at 37° C., followed by addition of a test compound (final concentration: 10 μM to 1 nM). As a negative control, DMSO used as a solvent was added at the same concentration as the test compound. Then, the cells were cultured under 5% CO2 at 37° C. for 5 days. A cell counting reagent (CellTiter-Glo™ Luminescent Cell Viability Assay; Promega) was added and agitated for 20 minutes, followed by measurement with a luminometer (ML3000 microtiter plate luminometer; Dynatech Laboratories).

[7] = target: T3, MUSK (Homo sapiens, UniProt O15146); experiment: Kinase inhibition profiling, MUSK (Test Example 6); type: biochemical; parameters: purchased Carna Biosciences Inc., Japan (contract measurement); details: 100 nM; read-out: inhibitory activity against MUSK
T3 sequence (O15146 24-869): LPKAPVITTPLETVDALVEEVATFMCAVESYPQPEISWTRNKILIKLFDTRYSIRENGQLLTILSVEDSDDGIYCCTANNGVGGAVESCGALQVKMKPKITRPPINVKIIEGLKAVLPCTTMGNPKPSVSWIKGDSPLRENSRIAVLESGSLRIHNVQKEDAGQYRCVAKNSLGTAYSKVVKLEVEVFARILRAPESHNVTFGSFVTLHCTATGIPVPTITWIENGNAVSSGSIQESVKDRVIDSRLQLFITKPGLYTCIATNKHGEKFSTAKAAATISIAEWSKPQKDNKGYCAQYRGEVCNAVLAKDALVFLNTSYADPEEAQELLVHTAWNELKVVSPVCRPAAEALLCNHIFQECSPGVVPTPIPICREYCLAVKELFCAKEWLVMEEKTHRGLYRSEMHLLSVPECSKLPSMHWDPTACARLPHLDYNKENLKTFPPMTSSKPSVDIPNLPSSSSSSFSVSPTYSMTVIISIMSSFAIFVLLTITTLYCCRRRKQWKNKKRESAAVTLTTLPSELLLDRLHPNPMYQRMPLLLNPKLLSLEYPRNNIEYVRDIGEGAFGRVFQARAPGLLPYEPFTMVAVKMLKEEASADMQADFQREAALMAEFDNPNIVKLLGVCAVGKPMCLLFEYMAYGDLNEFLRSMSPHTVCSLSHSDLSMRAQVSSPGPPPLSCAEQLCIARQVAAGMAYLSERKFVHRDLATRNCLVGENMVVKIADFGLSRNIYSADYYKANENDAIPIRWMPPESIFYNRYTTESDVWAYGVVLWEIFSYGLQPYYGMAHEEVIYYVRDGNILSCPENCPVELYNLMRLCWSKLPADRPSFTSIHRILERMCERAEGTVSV

[8] = system: human non-small cell lung cancer cell line HCC827 cells (mutant EGFR protein-expressing cells); experiment: Inhibitory effect against anchorage-independent cell growth of HCC827 cells (Test Example 4); type: cell-based; details: 120 h, spheroid plate, 5 days, CellTiter-Glo
Description: as §1
Evaluation of Inhibitory Effect Against Anchorage-Independent Cell Growth of Human Non-Small Cell Lung Cancer Cell Line HCC827 Cells (Mutant EGFR (with Partial Deletion of Exon 19 in EGFR) Protein-Expressing Cells, American Type Culture Collection)
Evaluation was performed in the same manner as shown in Test Example 3.

[9] = target: T4, MER (Homo sapiens, UniProt Q12866); experiment: Kinase inhibition profiling, MER (Test Example 6); type: biochemical; details: 100 nM; read-out: inhibitory activity against MER
T4 construct: purchased Carna Biosciences Inc., Japan (contract measurement)
T4 sequence (Q12866 21-999): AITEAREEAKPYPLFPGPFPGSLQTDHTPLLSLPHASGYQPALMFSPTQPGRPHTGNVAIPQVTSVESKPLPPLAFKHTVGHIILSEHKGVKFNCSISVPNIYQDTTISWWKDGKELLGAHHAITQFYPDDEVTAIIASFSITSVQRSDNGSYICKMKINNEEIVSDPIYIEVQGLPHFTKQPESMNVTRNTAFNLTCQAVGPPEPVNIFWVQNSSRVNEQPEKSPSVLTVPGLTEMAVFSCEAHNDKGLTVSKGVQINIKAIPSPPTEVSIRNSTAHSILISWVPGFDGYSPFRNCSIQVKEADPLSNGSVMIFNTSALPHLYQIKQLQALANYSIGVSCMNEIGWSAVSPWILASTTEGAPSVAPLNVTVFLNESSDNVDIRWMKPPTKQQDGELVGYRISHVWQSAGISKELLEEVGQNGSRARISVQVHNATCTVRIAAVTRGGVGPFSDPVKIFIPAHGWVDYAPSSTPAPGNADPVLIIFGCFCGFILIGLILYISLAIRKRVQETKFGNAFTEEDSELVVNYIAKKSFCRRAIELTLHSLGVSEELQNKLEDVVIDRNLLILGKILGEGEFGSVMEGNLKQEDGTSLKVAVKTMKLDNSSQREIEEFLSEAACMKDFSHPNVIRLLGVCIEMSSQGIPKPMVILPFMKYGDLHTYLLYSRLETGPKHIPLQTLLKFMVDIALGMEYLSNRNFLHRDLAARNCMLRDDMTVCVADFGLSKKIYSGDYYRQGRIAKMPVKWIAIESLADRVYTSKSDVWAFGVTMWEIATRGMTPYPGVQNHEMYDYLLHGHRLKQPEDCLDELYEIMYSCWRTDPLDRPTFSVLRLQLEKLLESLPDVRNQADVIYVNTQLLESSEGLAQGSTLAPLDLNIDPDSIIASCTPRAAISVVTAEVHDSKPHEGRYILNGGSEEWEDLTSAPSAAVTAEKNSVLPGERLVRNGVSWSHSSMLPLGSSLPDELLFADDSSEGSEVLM

[10] = system: 88 types of kinases; experiment: Kinase inhibition profiling, 88 types of kinases (Test Example 6); type: biochemical; details: concentration of 100 nM

T2 sequence (Q9BUB5 whole entry): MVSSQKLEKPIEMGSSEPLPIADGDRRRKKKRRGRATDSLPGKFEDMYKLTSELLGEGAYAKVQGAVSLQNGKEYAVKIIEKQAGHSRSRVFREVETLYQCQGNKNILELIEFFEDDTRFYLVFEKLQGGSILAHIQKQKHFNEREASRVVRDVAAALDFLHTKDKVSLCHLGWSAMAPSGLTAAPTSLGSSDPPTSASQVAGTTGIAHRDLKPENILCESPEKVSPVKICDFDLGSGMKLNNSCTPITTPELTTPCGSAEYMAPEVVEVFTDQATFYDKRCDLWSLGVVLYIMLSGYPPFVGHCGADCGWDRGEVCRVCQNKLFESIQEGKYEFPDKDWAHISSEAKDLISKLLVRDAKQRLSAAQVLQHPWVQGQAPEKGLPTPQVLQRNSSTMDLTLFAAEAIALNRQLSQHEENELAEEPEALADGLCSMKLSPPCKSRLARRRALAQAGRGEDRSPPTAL
T1 sequence (Q9UM73 with tags, fused parts or gaps I1461V/K1491R/D1529E): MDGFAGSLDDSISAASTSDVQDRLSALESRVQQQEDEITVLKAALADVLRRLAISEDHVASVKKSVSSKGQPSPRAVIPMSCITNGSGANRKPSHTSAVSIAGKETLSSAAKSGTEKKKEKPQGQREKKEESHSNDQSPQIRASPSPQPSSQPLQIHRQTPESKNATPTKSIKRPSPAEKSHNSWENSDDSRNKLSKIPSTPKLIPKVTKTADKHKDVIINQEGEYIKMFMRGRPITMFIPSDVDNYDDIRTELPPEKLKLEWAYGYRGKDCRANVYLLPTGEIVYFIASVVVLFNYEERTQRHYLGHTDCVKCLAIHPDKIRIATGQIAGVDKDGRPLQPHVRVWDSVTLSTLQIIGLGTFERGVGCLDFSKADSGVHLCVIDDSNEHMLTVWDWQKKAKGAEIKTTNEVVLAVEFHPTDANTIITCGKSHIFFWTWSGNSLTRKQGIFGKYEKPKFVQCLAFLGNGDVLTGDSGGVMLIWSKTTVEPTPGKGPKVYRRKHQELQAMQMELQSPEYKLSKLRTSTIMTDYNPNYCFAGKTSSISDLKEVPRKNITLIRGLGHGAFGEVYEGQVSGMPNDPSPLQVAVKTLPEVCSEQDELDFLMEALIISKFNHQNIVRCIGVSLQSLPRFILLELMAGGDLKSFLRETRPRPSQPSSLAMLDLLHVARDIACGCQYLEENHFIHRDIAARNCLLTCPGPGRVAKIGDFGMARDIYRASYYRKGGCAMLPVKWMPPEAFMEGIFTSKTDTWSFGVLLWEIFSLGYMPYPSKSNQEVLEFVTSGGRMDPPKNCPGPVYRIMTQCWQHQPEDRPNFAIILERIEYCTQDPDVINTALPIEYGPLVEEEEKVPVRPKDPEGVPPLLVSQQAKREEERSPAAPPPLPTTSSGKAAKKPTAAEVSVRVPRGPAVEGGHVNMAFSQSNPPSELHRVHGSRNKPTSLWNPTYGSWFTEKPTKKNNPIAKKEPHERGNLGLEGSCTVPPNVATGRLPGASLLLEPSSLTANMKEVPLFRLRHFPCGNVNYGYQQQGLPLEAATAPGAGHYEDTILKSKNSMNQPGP

CNS(=O)(=O)c1ccccc1Nc1nc(Nc2ccc(N3CCN(C)CC3)cc2OC)ncc1Br [Compound D, 2-[(5-bromo-2-{[2-methoxy-4-(4-methylpiperazin-1-yl)phenyl]amino}pyrimidin-4-yl)amino]-N-methylbenzenesulfonamide]
inhibition of the growth of v1 expressing 3T3 cells (tumor) ([1]; once a day for 10 days, started 6 days after inoculation): 101% | inhibition at 0.01 µM [2]: 99%

COc1cc(N2CCC(N3CCN(C)CC3)CC2)ccc1Nc1ncc(Cl)c(Nc2ccccc2S(=O)(=O)C(C)C)n1 [TAE684, 5-chloro-N^4-[2-(isopropylsulfonyl)phenyl]-N^2-{2-methoxy-4-[4-(4-methylpiperazin-1-yl)piperidin-1-yl]phenyl}pyrimidine-2,4-diamine, reference compound]
growth inhibitory activity, inhibition rate [3]: 7.5% | Dose: Bone marrow inhibition ([4]; female SD rats (2 rats)): 10 mg/kg | Dose: Exacerbation of common symptoms ([4]; female SD rats (2 rats)): 30 mg/kg | Non-toxic dose ([4]; female SD rats (2 rats)): 3 mg/kg | Dose: Moribund condition ([4]; female): 100 mg/kg | Dose: Bone marrow inhibition ([4]; male SD rats (4 rats)): 10 mg/kg | Dose: Exacerbation of common symptoms ([4]; male SD rats (4 rats)): 100 mg/kg | Non-toxic dose ([4]; male SD rats (4 rats)): 3 mg/kg | Dose: Moribund condition ([4]; male): (>100) mg/kg | inhibition at 0.1 µM [5]: 4.8% | IC50 [6]: 8.5 nM | inhibition at 0.1 µM [7]: ≥ 90% | IC50 [8]: 301 nM | inhibition at 0.1 µM [9]: ≥ 90% | number of types of kinases (of 88) with 50% or more inhibitory activity [10]: 29 types of kinases

COc1cc(N2CCC(N3CCN(C)CC3)CC2)ccc1Nc1ncc(Cl)c(Nc2ccccc2S(=O)(=O)C(C)C)n1 [Compound C]
inhibition of the growth of v1 expressing 3T3 cells (tumor) ([1]; oral 10 mg/kg once a day for 14 days, started 7 days after inoculation): 103%
